Laboratory results: ChEMBL document CHEMBL1201862, “PubChem BioAssay data set” (2004)
Activity calls are given as the source filed them.

Tests used:
[1] = inhibitors of TNFa-stimulated NF-kB luciferase reporter, dose response, selectivity assay for EBV LMP1 NF-kB inhibitor project, HEK293 LMP1 reporter cells, dry powder, set 2 (AID 624369); format: functional
[2] = LMP1-driven NF-kB reporter inhibition, dose response, cell-based, luciferase reporter, luminescence, dry powder, set 2 (AID 624376); format: functional
[3] = target: Intestinal-type alkaline phosphatase (Mus musculus, UniProt P24822); test: PubChem AID 488875; format: functional
[4] = target: T1, Intestinal-type alkaline phosphatase (Homo sapiens, UniProt P09923); test: human intestinal alkaline phosphatase activators, dose response, biochemical, luminescence, uHTS hits (AID 463120); format: functional
[5] = target: T1, Intestinal-type alkaline phosphatase; test: human IAP activators, dose response, biochemical, luminescent, uHTS hits, set 2 (AID 488817); format: functional;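 note: potency of activators that raise enzyme activity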
[6] = target: T2, Alkaline phosphatase, tissue-nonspecific isozyme (Homo sapiens, UniProt P05186); test: TNAP enzyme activators, dose response, selectivity assay for human IAP activator project, biochemical, TNAP isozyme, human IAP uHTS hits (AID 488886); format: functional;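 note: potency of compounds raising TNAP activity as a selectivity check on IAP activators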
T2 sequence (P05186 whole entry): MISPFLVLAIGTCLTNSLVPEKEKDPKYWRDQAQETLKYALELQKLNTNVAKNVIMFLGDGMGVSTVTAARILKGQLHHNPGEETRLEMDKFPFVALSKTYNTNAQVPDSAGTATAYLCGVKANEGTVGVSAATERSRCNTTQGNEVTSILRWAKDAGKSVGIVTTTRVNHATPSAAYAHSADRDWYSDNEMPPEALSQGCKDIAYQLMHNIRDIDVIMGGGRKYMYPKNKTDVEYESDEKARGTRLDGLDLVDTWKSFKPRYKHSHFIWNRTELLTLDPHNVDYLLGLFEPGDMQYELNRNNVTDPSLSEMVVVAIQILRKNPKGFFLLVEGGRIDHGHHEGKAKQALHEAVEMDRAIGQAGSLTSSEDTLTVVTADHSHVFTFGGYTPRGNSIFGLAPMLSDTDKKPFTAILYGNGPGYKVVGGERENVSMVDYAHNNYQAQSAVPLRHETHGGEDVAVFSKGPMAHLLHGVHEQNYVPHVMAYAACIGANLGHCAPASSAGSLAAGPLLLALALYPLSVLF

[7] = target: Albumin (Bos taurus, UniProt P02769); test: Counterscreen for inhibitors of T-cell receptor (TCR)-CD3 interaction: Fluorescence-based biochemical high throughput dose response assay to identify inhibitors of T-cell receptor (TCR)-CD3 interaction using a TAMRA-labeled BSA probe.; format: functional
[8] = target: Galanin receptor type 3 (Homo sapiens, UniProt O60755); test: Fluorescence-based cell-based primary high throughput dose response assay to identify antagonists of the Galanin Receptor 3 (GalR3).; format: functional
[9] = cells; format: functional, cell-based; settings: HEK-CNG
[10] = target: Nuclear receptor subfamily 5 group A member 2 (Homo sapiens, UniProt O00482); format: functional, cell-based;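 note: HEK293T cells transfected with LRH-1 and a StAR promoter luciferase reporter; potency for inhibitors that lower LRH-1 driven reporter light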
[11] = target: Steroidogenic factor 1 (Homo sapiens, UniProt Q13285); test: Counterscreen for inverse agonists of the liver receptor homolog-1 (LRH-1; NR5A2): Luminescence-based cell-based high throughput dose response assay to identify inverse agonists of the Steroidogenic Factor 1 Nuclear Receptor (SF1; NR5A1).; format: functional
[12] = StAR promoter reporter inhibition counter-screen, dose response, counter-screen for LRH-1 inverse agonist project, cell-based, luminescence, luciferase reporter (AID 651969); format: functional
[13] = target: Keap1/Nrf2 (Homo sapiens, UniProt Q14145); test: Keap1-Nrf2 protein-protein interaction inhibitors, dose response, biochemical, fluorescence polarization, cherry-picked samples (AID 588683)
[14] = Keap1 Kelch-Nrf2 peptide binding inhibitors, dose response, biochemical, fluorescence polarization, dry powder, set 3 (AID 651806)
[15] = target: Protein Wnt-3a (Mus musculus, UniProt P27467); test: SAR analysis of small molecule antagonists of Gli-SUFU in a Wnt3a luminescent reporter assay.; format: functional
[16] = target: Protein disulfide-isomerase (Homo sapiens, UniProt P07237); test: PDI inhibitors, insulin turbidity readout, confirmation, biochemical, dry powder samples, set 2 (AID 652146)
[17] = target: Paired box protein Pax-8 (Homo sapiens, UniProt Q06710); test: inhibitors of PAX8-driven TPO luciferase reporter, dose response, RMG-I cells, cherry-pick (AID 687027); format: functional, cell-based;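 note: luciferase reporter driven by Pax8 target thyroperoxidase promoter measured by SteadyGlo luminescence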
[18] = IOSE-T80 ovarian epithelial cell cytotoxicity, dose response, cytotoxicity control for PAX8 inhibitor project, plate reader, dry powder samples (AID 743045); format: functional, cell-based
[19] = inhibitors of CMV-promoter luciferase reporter, dose response, counter-screen for Pax8 inhibitor project, cell-based, HEK293, luminescence, dry powder (AID 743020); format: functional
[20] = NIH:OVCAR-3 ovarian cancer cell cytotoxicity, dose response, PAX8 inhibitor project, plate reader, dry powder samples (AID 743044); format: functional, cell-based
[21] = IGROV1 ovarian cancer cell cytotoxicity, dose response, PAX8 inhibitor project, plate reader, dry powder samples (AID 743043); format: functional, cell-based; settings: IGROV-1
[22] = cytotoxicity in OVCAR8 ovarian cancer cells, dose response, PAX8 project, cell-based, plate reader, dry powder samples (AID 743197); format: functional; settings: OVCAR-8

T1 sequence (P09923 whole entry): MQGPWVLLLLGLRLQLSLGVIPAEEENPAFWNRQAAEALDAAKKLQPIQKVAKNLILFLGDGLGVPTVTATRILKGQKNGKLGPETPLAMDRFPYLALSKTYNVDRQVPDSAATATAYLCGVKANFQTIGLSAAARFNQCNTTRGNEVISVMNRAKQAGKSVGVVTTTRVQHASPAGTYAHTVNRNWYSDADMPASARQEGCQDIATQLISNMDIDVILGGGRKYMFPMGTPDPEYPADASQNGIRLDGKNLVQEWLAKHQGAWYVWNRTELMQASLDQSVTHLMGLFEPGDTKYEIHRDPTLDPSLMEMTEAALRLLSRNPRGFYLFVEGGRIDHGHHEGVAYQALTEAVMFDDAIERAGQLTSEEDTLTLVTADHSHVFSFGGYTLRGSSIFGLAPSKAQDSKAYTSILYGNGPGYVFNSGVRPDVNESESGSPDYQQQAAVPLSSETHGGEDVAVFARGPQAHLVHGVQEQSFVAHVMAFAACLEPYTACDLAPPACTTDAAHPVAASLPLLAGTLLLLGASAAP
Galanin receptor type 3, sequence (O60755 whole entry): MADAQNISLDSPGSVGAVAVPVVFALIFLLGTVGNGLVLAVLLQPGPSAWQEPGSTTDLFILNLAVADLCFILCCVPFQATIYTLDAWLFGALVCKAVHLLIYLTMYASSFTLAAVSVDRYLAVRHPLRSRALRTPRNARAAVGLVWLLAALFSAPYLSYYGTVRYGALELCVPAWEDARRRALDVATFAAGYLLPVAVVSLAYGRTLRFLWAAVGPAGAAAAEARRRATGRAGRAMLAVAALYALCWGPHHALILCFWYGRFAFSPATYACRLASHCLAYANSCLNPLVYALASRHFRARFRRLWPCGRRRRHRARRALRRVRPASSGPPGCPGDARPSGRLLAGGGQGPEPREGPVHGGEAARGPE
Intestinal-type alkaline phosphatase (Mus musculus, UniProt P24822), sequence (P24822 whole entry): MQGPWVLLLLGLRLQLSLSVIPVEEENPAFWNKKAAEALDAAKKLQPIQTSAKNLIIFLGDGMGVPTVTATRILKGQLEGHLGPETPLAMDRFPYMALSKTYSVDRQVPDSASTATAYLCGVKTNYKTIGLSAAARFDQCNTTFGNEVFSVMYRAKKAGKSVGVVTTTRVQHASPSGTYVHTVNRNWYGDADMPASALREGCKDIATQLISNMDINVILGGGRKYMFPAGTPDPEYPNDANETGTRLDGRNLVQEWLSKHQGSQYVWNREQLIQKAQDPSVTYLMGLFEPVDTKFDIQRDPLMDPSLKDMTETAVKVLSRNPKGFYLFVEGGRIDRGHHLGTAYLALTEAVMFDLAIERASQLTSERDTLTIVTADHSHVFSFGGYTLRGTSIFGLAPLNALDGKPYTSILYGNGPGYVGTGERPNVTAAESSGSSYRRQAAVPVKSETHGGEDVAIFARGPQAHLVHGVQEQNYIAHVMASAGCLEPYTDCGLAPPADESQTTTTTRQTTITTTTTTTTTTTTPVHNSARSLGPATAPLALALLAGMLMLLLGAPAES
Protein disulfide-isomerase, sequence (P07237 whole entry): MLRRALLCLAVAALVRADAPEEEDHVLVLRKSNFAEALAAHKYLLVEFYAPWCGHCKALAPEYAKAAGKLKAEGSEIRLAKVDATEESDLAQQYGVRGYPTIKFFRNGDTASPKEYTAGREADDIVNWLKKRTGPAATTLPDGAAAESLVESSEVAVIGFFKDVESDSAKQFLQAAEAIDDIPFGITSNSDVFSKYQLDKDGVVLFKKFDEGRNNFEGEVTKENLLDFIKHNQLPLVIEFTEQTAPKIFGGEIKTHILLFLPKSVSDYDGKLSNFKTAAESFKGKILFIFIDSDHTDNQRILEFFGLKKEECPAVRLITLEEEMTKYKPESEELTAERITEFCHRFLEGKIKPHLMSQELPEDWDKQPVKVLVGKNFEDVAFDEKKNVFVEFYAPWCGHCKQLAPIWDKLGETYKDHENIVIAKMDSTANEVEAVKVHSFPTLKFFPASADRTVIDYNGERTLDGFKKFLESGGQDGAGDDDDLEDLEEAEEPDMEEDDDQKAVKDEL
Albumin, sequence (P02769 whole entry): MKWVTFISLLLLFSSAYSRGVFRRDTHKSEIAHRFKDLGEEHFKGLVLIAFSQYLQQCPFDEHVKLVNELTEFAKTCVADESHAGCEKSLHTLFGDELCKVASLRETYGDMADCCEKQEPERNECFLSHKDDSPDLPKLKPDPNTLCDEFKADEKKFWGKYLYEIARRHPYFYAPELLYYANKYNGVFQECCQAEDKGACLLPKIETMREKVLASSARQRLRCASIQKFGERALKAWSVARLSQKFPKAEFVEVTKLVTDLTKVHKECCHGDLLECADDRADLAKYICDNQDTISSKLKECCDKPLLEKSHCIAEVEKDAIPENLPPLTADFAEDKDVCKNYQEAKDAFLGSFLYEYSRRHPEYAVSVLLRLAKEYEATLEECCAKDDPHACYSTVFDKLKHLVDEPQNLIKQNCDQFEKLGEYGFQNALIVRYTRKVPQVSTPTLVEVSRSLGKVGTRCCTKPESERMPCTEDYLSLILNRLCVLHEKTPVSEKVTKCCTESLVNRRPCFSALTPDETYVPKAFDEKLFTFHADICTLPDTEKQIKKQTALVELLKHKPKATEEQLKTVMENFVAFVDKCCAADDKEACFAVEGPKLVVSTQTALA
Keap1/Nrf2, sequence (Q16236 whole entry): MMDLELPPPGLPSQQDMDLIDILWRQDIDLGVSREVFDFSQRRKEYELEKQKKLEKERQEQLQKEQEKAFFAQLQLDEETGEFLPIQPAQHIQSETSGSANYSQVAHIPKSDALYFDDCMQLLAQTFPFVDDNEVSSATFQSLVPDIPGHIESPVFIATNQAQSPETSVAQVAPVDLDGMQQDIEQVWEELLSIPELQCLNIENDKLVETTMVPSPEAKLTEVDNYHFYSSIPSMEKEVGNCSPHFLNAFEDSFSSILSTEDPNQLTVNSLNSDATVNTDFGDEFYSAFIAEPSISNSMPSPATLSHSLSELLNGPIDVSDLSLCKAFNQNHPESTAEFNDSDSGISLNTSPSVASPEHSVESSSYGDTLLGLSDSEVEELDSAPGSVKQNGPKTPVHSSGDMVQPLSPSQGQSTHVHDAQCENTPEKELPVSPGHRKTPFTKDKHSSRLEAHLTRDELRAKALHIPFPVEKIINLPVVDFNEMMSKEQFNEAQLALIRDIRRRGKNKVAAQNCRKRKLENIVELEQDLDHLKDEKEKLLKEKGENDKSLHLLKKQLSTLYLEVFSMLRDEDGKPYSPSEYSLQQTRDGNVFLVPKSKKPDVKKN
Keap1/Nrf2, sequence (Q14145 whole entry): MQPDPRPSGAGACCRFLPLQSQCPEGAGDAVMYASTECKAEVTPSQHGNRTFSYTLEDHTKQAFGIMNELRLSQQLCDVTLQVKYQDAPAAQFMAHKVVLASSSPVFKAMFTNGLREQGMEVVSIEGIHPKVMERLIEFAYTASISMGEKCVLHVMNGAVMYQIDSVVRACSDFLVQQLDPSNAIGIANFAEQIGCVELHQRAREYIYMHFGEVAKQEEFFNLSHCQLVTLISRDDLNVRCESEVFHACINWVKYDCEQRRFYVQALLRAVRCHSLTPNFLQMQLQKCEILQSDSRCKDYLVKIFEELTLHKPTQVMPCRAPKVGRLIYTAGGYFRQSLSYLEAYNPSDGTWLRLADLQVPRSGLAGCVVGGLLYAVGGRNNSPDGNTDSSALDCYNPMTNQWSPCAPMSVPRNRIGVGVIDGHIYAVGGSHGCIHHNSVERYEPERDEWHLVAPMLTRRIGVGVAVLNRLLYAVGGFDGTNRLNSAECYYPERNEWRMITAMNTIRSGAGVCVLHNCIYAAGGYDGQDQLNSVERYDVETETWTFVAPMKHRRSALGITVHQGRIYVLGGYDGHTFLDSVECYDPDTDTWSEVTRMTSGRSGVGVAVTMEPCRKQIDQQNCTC
Steroidogenic factor 1, sequence (Q13285 whole entry): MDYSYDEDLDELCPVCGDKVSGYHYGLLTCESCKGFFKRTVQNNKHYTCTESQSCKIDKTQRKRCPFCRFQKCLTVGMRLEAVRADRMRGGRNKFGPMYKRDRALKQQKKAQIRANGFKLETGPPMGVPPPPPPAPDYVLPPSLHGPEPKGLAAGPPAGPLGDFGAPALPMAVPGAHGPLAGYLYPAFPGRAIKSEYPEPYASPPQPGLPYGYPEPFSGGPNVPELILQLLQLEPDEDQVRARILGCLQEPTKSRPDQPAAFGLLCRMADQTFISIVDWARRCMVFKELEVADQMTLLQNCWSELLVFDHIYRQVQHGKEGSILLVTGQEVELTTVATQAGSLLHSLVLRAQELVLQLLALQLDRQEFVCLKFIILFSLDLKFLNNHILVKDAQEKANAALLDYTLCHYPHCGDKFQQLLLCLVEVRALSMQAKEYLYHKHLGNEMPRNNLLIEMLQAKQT
Nuclear receptor subfamily 5 group A member 2, sequence (O00482 whole entry): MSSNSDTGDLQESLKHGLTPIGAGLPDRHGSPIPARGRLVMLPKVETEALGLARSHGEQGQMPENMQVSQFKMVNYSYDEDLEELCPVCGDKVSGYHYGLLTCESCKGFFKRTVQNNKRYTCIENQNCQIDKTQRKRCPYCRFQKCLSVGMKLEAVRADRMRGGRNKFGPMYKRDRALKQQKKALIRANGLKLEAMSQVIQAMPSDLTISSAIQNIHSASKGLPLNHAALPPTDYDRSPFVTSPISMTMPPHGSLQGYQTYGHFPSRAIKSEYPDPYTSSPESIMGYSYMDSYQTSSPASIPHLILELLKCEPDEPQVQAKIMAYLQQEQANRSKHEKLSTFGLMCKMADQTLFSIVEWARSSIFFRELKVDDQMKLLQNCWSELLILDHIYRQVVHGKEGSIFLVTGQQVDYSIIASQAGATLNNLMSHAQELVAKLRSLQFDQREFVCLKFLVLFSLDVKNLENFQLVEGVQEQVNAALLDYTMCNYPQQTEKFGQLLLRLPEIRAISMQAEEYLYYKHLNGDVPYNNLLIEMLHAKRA

**Q.** For `O=C(C[C@@H]1C[C@H]2c3cc(NS(=O)(=O)c4ccc(F)cc4)ccc3O[C@H]2[C@H](CO)O1)NCc1ccc(Oc2ccccc2)cc1`, which AbsAC35 [1] is on record?
**A.** Its AbsAC35 is 42.88 µM.

**Q.** What about the AbsAC35 [2] of the same compound?
**A.** Its AbsAC35 is 65.62 µM.

**Q.** For `Cc1ccc(NC(=O)NNC(=O)c2cc3ccccc3cc2O)cc1`, which EC50 [3] is on record?
**A.** Its EC50 is > 100 µM (inactive).

**Q.** What about the EC50 [4] of the same compound?
**A.** Its EC50 is 9.83 µM (active).

**Q.** And the EC50 [5]?
**A.** Its EC50 is 14.9 µM (active).

**Q.** What about the EC50 [6] of the same compound?
**A.** The EC50 was 13 µM (active).

**Q.** And the IC50 [7]?
**A.** Its IC50 is > 94.1 µM (inactive).

**Q.** Which results are given for `CC(=O)c1cn(CC(=O)NCCc2c[nH]c3ccccc23)c2ccccc12`?
**A.** IC50 [8]: 2.7 µM (active); EC50 [9]: > 29.9 µM (inactive)

**Q.** What does the source list for `O=C(COC(=O)CCN1C(=O)C2CC=CCC2C1=O)NCCc1ccc(F)cc1` (configuration not stated)?
**A.** IC50 [10]: 19.1 µM (inactive); IC50 [11]: 2.33 µM (active); IC50 [12]: 35.9 µM (inactive)

**Q.** With `Cc1ccc(S(=O)(=O)Nc2cc(C(C(=O)OC(C)C)C(=O)C(F)(F)F)c(O)c3ccccc23)c(C)c1` (configuration not stated) as the compound, how does the AC50 [13] read?
**A.** The AC50 was 2.67 µM (active).

**Q.** And the AC50 [14]?
**A.** The AC50 was 74.9 µM (active).

**Q.** For `N#Cc1cccc(C(=O)Nc2cc(N3CCCCC3)ncn2)c1`, which IC50 [15] is on record?
**A.** The IC50 was > 21.8 µM (inactive).

**Q.** For `CCNC(=O)C1(CCOc2ccccc2)CCN(Cc2ccc(O)c(Cl)c2)CC1`, which AC50 [16] is on record?
**A.** Its AC50 is > 30 µM (inactive).

**Q.** What does the source list for `C[C@@H]1CN([C@H](C)CO)C(=O)c2cc(NS(=O)(=O)c3ccccc3)ccc2O[C@@H](C)CCCCO[C@H]1CN(C)Cc1ccc(C(F)(F)F)cc1`?
**A.** AC50 [17]: 5.82 µM (active); AC50 [18]: 55.1 µM (active); AC50 [19]: 29.8 µM (active); AC50 [20]: 15.7 µM (active); AC50 [21]: 35.8 µM (active); AC50 [22]: 17.6 µM (active)
